Experimental data published in patent US20100286247A1, “Methods of Protection from Oxidative Stress” (Trustees of Boston University, priority 2005, published 2010).
{P} = phosphate

Key:
SOD1 mRNA = assay: Northern blot analysis of antioxidant enzyme mRNA: SOD1; type: cell-based, human; details: 100 μM pTT, 8-72 hours, three donors
Protocol: (§1) Cell culture followed previously published methods.^92 Primary human newborn dermal fibroblasts were cultured from neonatal circumcised foreskin specimens. The skin samples were treated overnight in a 0.25% trypsin solution at 4° C. to separate the epidermis from the dermis. The separated dermis was then cut into pieces and plated onto etched plastic tissue culture dishes. Primary culture medium consisted of DMEM supplemented with 10% bovine CS, 50 U/ml penicillin and 50 μg/ml streptomycin sulfate. […] Secondary culture medium consisted of DMEM supplemented with 10% CS.
(§2) Purified 5′-phosphorylated thymidine dinucleotides (pTT) (Midland Certified Reagents, Inc., Texas) purified by gel filtration and analyzed by mass spectroscopy, were obtained in lyophilized form. […] The stock solution was syringe filter-sterilized through a 0.2 μm pore filter and spectrophotometrically analyzed (absorbance at 260 and 280 nm) to determine the concentration, and frozen in aliquots at −20° C. […]
(§3) Cells were harvested in Trizol (Gibco BRL, Gaithersburg, Md.) and stored at −70° C. […] RNA solutions were measured by spectrophotometer readings at 260 nm and 280 nm to determine concentration and purity. […]
(§4) Northern and western films as well as stained membranes and pictures of ethidium bromide-stained gels were digitally scanned and analyzed by densitometry. […]

CAT mRNA = assay: Northern blot analysis of antioxidant enzyme mRNA: CAT; type: cell-based, human; details: 100 μM pTT, 8-72 hours
Protocol: as §1, §2, §3, §4

[1] = test system: primary human newborn dermal fibroblasts; assay: Determination of cell yields (Coulter counts); type: cell-based
Protocol: as §1
Equal numbers of fibroblasts were seeded into 32 mm culture dishes, and paired dishes were treated with pTT or diluent control as described above. At 24, 48 and 72 hours of treatment, the cells were harvested by trypsinization and counted in an automated cell counter (Coulter Z Series, Beckman Coulter, Inc., Fullerton, Calif.). The experiments were conducted in parallel with the MTS assay, using the same donor cells.
Cell yields of pTT-treated fibroblasts were compared to diluent using 2-way ANOVA and a total of four different experiments, to identify significant difference between treatment groups as a function of cell number and time. The parallel MTS assay also utilized the 2-way ANOVA, to compare changes in OD at 492 nm as a function of time and treatment modality. […]

[2] = test system: primary human newborn dermal fibroblasts; assay: MTS viability assay; type: cell-based; details: 100 μM pTT
From the text: The CellTiter 96 Aqueous One Solution Cell Proliferation Assay, a version of the MTT assay, (Promega Corp., Madison, Wis.) is generally used as a eukaryotic cell viability and proliferation assay.^180 It has also been used to measure mitochondrial dysfunction,^181 because the assay measures the reduction of a tetrazolium compound [3-(4,5-dimethylthiazol-2-yl)-5-(-3-carboxymethoxyphenyl)-2-(4-sulfophenyl)-2H-tetrazolium] to formazan in viable mitochondria. The MTS assay utilizes a water-soluble form of the tetrazolium reagent in the original MIT assay. The formazan product is measured by absorbance at 492 nm.
Equal numbers of cells were seeded into 96-well tissue culture plates, and paired wells were treated once with pTT or diluent control as described above. At 24, 48 and 72 hours cell viability was assayed using the MTS assay and an ELIZA plate reader (Tecan Spectra II Model F039002, Austria) to measure absorbance at 492 nm. The experiments were conducted in parallel with cell yield Coulter counts, using the same donor cells.
Cell yields of pTT-treated fibroblasts were compared to diluent using 2-way ANOVA and a total of four different experiments, to identify significant difference between treatment groups as a function of cell number and time. The parallel MTS assay also utilized the 2-way ANOVA, to compare changes in OD at 492 nm as a function of time and treatment modality.

p21/Cip1/Waf1 protein = assay: Western blot of p21/Cip1/Waf1; type: cell-based, human; details: by 36-48 hours, sustained through 72 hours; 40 μM TO, 100 μM pTT
Protocol: Western blot analysis of proteins from cells treated and harvested in parallel with DCF time course studies was conducted as described above. Membranes were reacted with antibodies to total p53/DO-1 (1:1000 dilution, Oncogene Research Products, Cambridge, Mass.), anti-phoso-p53 (Ser-15) (1:1000 dilution, Cell Signaling Technology, Beverly, Mass.), and p21/Cip1/Waf1 (1:500 dilution, Transduction Laboratories, Lexington, Ky.), followed by appropriate secondary antibodies diluted 1:2000.

5′-phosphorylated thymidine dinucleotides [pTT]
SOD1 mRNA level compared to diluent (SOD1 mRNA): no difference between pTT- and diluent-treated cells | CAT mRNA level compared to diluent (CAT mRNA): remain unchanged | rate of fibroblast growth (cell yields) during treatment vs diluent ([1]; 100 μM pTT, 24-72 hours, 2-way ANOVA p=0.0079): significantly decreased | growth after replating in regular medium vs diluent-pretreated cells ([1]; 72 hours pretreatment with 100 μM pTT, no H2O2, p=0.0006): significantly stimulated growth | cell viability (MTS formazan absorbance) vs diluent ([2]; 24-72 hours, 2-way ANOVA p=0.2588): no significant decrease in cell viability | mitochondrial reductive activity per cell (MTS absorbance per Coulter-counted cell) ([2]; p=0.0093): significant increase in mitochondrial reductive activity per cell

pGTTAGGGTTAG (5' {P}, sugars by position and backbone not given here) [TO]
p21 protein response, TO vs pTT (p21/Cip1/Waf1 protein): greater than to pTT
